Test results taken from patent US20200255492A1, “LEPTIN PEPTIDES AND THEIR USE FOR TREATING NEUROLOGICAL DISORDERS” (UNIVERSITY OF DUNDEE, priority 2017, published 2020).

Tests used:
[1] = test system: tau in hippocampal neurons; assay: Immunocytochemistry of endogenous tau and tau/PSD-95 co-localization; type: cell-based, Sprague-Dawley rats; settings: Aβ1-42 1 μM plus leptin/fragment 10 nM or SB216763 100 nM
Description: Hippocampal cultures were prepared as previously (Moult et al, 2010). Neonatal Sprague-Dawley rats (1-3 d old) were […] killed by cervical dislocation in accordance with the UK Animals (Scientific Procedures Act) 1986 legislation. Hippocampi were removed, and after washing in HEPES-buffered saline comprising (mM) 135 NaCl; 5 KCl; 1 CaCl2; 1 MgCl2; 10 HEPES; and 25 D-glucose at […], were treated with papain (1.5 mg ml21; Sigma-Aldrich) for 20 min at 37° C. Dissociated cells were plated onto sterile dishes (35 mm diameter; Greiner Bio-One, Kremsmun-ster, Austria) treated with poly-D-lysine (20 μg ml^−1; 1-2 h). Cultures were maintained in serum replacement medium (SR2; Sigma-Aldrich) in a humidified atmosphere of 5% CO2 and […] at 37° C. for up to 2 wk.
Immunocytochemistry was conducted on primary hippocampal cultures (7-14 DIV). Prior to labelling with antibodies, neurons were washed with HBS containing glycine (0.01 mM) and incubated with agents for 1 h at room temperature. Cultures were fixed with 4% paraformaldehyde for 5 min, then permeabilized with 0.1% Triton X-100 for 5 min. To label endogenous tau, neurons were incubated with a rabbit anti-tau (Ab-217; Genscript) primary antibody (1:200 dilution) at room temperature for 30 min, followed by incubation with an Alexa Fluor555 donkey anti-rabbit (1:250, Invitrogen) secondary antibody for an additional 30 min duration. To assess the % co-localisation of tau at synapses, neurons were dual labelled with an antibody against the synaptic marker, PSD-95 (mouse anti-PSD-95; 1:500, Thermo Fisher) followed by application of an Alexa Fluor488 goat anti-mouse secondary antibody (1:500, Invitrogen).
A Zeiss LSM510 confocal microscope was used for image acquisition and analysis. Images were obtained using a 10-s scan speed in single tracking mode or multi-tracking mode for dual labelling experiments. The intensity of immunostaining was measured off-line using Lasersharp software (Zeiss Lasersharp), whereby analysis lines of 50 μm length were drawn along randomly selected dendritic regions. All data were obtained from at least three different cultures from different animals. Imaging conditions including illumination intensity and photomultiplier gains were kept constant between treatments for each experiment. In addition, data were normalised relative to the mean fluorescence intensity obtained from control neurons. For synaptic co-localisation experiments, tau and PSD-95 positive immunostaining were compared. The number of tau-positive sites that co-localized with PSD-95 positive sites were counted and expressed as a percentage of total positive sites (peaks of intensity).

[2] = test system: differentiated human neural cells (SH-SY5Y); assay: LDH release assay (membrane leakage, cell death); type: cell-based; settings: 10 μM Aβ1-42; for reduction of LDH release compared with Aβ1-42 alone, hexamer study: 10 nM, n=11
Description: (§1) The human neuroblastoma cell line, SH-SY5Y (ECACC, UK) was maintained in Dulbecco's Modified Eagle Medium supplemented with glucose ([…]) and 10% (v/v) cosmic calf serum (Fisher Scientific, UK) at 37° C. in a humidified atmosphere of 5% CO2, 95% air and allowed to reach 70-80% confluence before seeding. Cells (passage 10-18) were plated at 10 000 cells per well in 96 well tissue culture plates (Nunc, VWR, UK) and at a density of 2×10^5 cells in 35 mm dishes for protein extraction. To induce differentiation, cells were cultured in DMEM supplemented with glucose ([…]), 1% (v/v) cosmic calf serum and 10 μM retinoic acid for 5 days. Thereafter they were incubated in DMEM supplemented with glucose ([…]), serum replacement 2 (2%; Sigma, UK) and 18 μM 5-fluorodeoxyuridine to inhibit proliferation of undifferentiated cells. The 50% of the medium was changed every 2-3 days and pharmacological treatment was carried out 7 days after switching to this medium. Reagents used were (from Sigma UK unless stated) 0.1-10 nM human leptin and leptin (116-130); 0.1-10 nM leptin (22-56; Bachem; Switzerland); 10 nM leptin (116-121) leptin (117-122), leptin (124-129) or leptin (125-130; all Severn Biotech, UK); 5 μM copper chloride; […], 5 μM WP1066 or 50 nM wortmannin. All treatments were added to the culture at the same time and survival assays were carried out after 96 h treatment. Protein samples for signaling ELISA were extracted 3 h after exposure to the relevant reagents and for biomarker expression after 72 hours.
(§2) The concentration of lactate dehydrogenase (LDH) in the culture medium or the mitochondrial activity within cells was used to monitor the level of cell death, as previously (Oldreive and Doherty 2010). In certain experiments, a Crystal violet assay was used to assess total cell number. Cells were fixed in neutral buffered formalin and washed 3 times in PBS prior to staining with 0.01% crystal violet acetate for 5 min. Plates were washed 5-10 times in dH2O and cells solubilised in 100 μl dimethyl sulfoxide (DMSO) before reading the absorbance on a Biohit BP100 plate reader. For all assays, data is expressed as percentage relative to control, untreated wells to normalize for differences in plating density between individual experiments.
To determine whether leptin (116-130) has neuroprotective actions, the effects of leptin (116-130) on the viability of differentiated human neural cells (SH-SY5Y) was examined after exposure to either 5 μM CuCl2 or 10 μM Aβ1-42. Cells were treated with the toxin alone or with a range of concentrations (10-0.1 nM) of leptin or leptin (116-130). […] Thus like leptin, treatment with leptin (116-130) reduces neuronal death in response to AD-linked toxins in vitro.

[3] = test system: phosphorylated tau (p-tau); assay: ELISA of phosphorylated tau relative to α-tubulin; type: cell-based, human; settings: 10 nM; n=5
Description: as §1
Protein from cultures was extracted into 500 μl Tris-buffered saline containing protease inhibitor cocktail, and a Bradford assay used to determine protein concentration. Samples were diluted to give equal loading onto ELISA plates. Commercially available ELISA kits were used in accordance with the manufacturer's instructions to determine the ratio of pan-STAT3 to phospho-STAT3 (Sigma, UK) and pan-Akt to phospho-Akt (Sigma, UK) and the levels of alpha-tubulin and phosphorylated tau (Sigma, UK). Each protein sample was run in duplicate using samples derived from at least 5 biological repeats.
Hyper-phosphorylation of tau is the underpinning mechanism of the development of neurofibrillary tangles—one of the key pathological feature of AD. Human SH-SY5Y neuronal cells were exposed to Aβ1-42 alone or in combination with 10 nM leptin, leptin (116-130), leptin (116-121), leptin (117-122), leptin (124-129) or leptin (125-130). Protein was extracted for ELISA assay and the ratio of p-tau to the house-keeping protein α-tubulin determined (FIG. 11C). […] Thus for Aβ1-42-treated cells, 10 nM leptin and 10 nM leptin (116-130) reduced p-tau expression by 56.2±8.0% and 58.9+4.6% respectively compared with Aβ1-42 alone (n=5; P<0.001; FIG. 11C); an effect that was mirrored by 10 nM leptin (116-121) and leptin (117-122); 58.1±4.0% and 45.48±6.1% (n=5; P<0.001 and P<0.01 respectively; FIG. 11C), but not by 10 nM leptin (124-129) or leptin (125-130)(n=5; P>0.5; FIG. 11C).

[4] = test system: GluA1 surface expression in cultured hippocampal neurons; assay: Surface labelling of AMPA receptor subunit GluA1 (immunocytochemistry); type: cell-based, Sprague Dawley rats; settings: for GluA1 surface expression, hexamer study: 10 nM, 15 min
[5] = test system: acute hippocampal slices; assay: HFS-induced LTP with leptin hexamers; type: cell-based, Sprague Dawley rats; settings: 10 nM for 50 min prior to HFS; control LTP 117±10.8% / 125±4.9%
Description: Parasagittal hippocampal slices (300 μm) were prepared from either P13-21 or 12-24-week-old male Sprague Dawley rats as previously (Moult et al. 2010). Brains were rapidly removed and placed in ice-cold artificial CSF (aCSF; bubbled with 95% O2 and 5% CO2) containing the following (in mm): 124 NaCl, 3 KCl, 26 NaHCO3, 1.25 NaH2PO4, 2 CaCl2, 1 MgSO4, and 10 d-glucose. Once prepared, parasagittal slices were allowed to recover at room temperature in oxygenated aCSF for 1 h before use. Slices were transferred to a submerged chamber maintained at room temperature and perfused with artificial cerebrospinal fluid at 2 ml min^−1. Standard extracellular recordings were used to monitor evoked field excitatory postsynaptic potentials (fEPSP) from stratum radiatum. The Schaffer collateral-commissural pathway was stimulated (constant voltage; 0.1 ms) at 0.033 Hz, using a stimulus intensity that evoked a peak amplitude ˜50% of the maximum. Synaptic potentials were low pass filtered at 2 kHz and digitally sampled at 10 kHz. The fEPSP slope was measured and expressed relative to baseline. Synaptic records are the average of 4 consecutive responses and stimulus artefacts are blanked for clarity. Recordings were made using an Axopatch 200B amplifier and analyzed using LTP v2.4 software. In synaptic plasticity studies, the degree of potentiation was calculated 30-35 min after HFS and expressed as a percentage of baseline±standard error of mean (SEM).
To determine if the leptin hexamers influence the magnitude of activity-dependent synaptic plasticity, standard extracellular recording techniques were used to assess the effects of leptin (116-121, 117-122, 118-123, 120-125, 124-129 and 125-130) on the magnitude of LTP induced by high frequency stimulation (100 Hz, 1 s) in acute hippocampal slices. […] In parallel studies, application of leptin (118-123; 158±3.8%; n=7; p<0.05; FIG. 8) or leptin (120-125; to 163±8.8% of baseline; n=5; p<0.05) also facilitated LTP, compared to control LTP (FIG. 8).

[6] = test system: differentiated SH-SY5Y human neuronal cells; assay: MTT assay of mitochondrial activity (cell viability); type: cell-based; settings: 10 nM; n=11
Description: as §1, §2
To confirm the findings of the LDH assay, cells were treated with Aβ1-42 alone or with a 10 nM of leptin, leptin (116-130) or the listed hexamers, and mitochondrial activity, as a measure of cell viability, determined by MTT assay. A significant increase in mitochondrial activity was detected following treatment with either leptin or leptin (116-130; both 10 nM). […] Thus for Aβ1-42-treated cells, 10 nM leptin and 10 nM leptin (116-130) increased mitochondrial activity by 32.6±5.2% and 40.9+5.8% respectively compared with Aβ1-42 alone (n=11; P<0.001; FIG. 11B); an effect that was mirrored by 10 nM leptin (116-121) and leptin (117-122); 43.61±3.9% and 40.5±3.7*% (n=11; P<0.001; FIG. 11B), but not by 10 nM leptin (124-129) or leptin (125-130) (n=11; P>0.5; FIG. 11B). This reinforces the findings from the LDH assay that similar to either leptin or leptin (116-130), treatment with leptin (116-121) or leptin (117-122) reduces neuronal death in response to AD-linked toxins in vitro.

Compound	GluA1 surface expression, hexamer study [4]	magnitude of LTP after HFS (100 Hz, 1 s) [5]	other results
Cn1cc(C2=C(c3ccc(Cl)cc3Cl)C(=O)NC2=O)c2ccccc21 [SB216763, reference compound]	–	–	% co-localization of tau and PSD-95 in Aβ1-42-treated neurons [1]: decreased % tau/PSD-95 co-localization; relative tau intensity in Aβ1-42-treated neurons [1]: mirrors the effects of leptin
C[C@H](NC(=O)/C(C#N)=C/c1cccc(Br)n1)c1ccccc1 [WP1066, reference compound]	–	–	effect of inhibitor on leptin (116-130)-mediated neuroprotection (LDH) ([2]; WP1066 5 μM, wortmannin 50 nM): prevented leptin (116-130)-mediated neuroprotection
GLQKPE (listed as Mus musculus) [leptin (124-129)]	89±6 % of control	137±5.6 % of baseline	reduction of p-tau expression compared with Aβ1-42 alone [3]: did not; reduction of LDH release compared with Aβ1-42 alone, hexamer study [2]: did not; increase in mitochondrial activity compared with Aβ1-42 alone [6]: did not
LQKPES (SCHLPWASGL; listed as Homo sapiens) [leptin (125-130)]	98±5 % of control	137±2.4 % of baseline	reduction of p-tau expression compared with Aβ1-42 alone [3]: did not; reduction of LDH release compared with Aβ1-42 alone, hexamer study [2]: did not; increase in mitochondrial activity compared with Aβ1-42 alone [6]: did not
PQTSGL (listed as Mus musculus) [leptin (120-125)]	increased the surface expression of GluA1	163±8.8 % of baseline	–
SLPQTS (listed as Mus musculus) [leptin (118-123)]	increased the surface expression of GluA1	158±3.8 % of baseline	–
bisperoxovanadium [bpV, reference compound]	–	–	GluA1 surface expression, agent alone (PTEN study) ([4]; bpV 50 nM, 30 min): 148±8 % of control
leptin (121-126): leptin fragment amino acids 121-126 (WASGLE; UniProt P41159 121-126, looked up, fragment)	failed to significantly alter the surface expression of GluA1	–	–
leptin (122-128): leptin fragment amino acids 122-128 (ASGLETL; UniProt P41159 122-128, looked up, fragment)	failed to significantly alter the surface expression of GluA1	–	–
